# Reference: patent US7294637B2 (Sepracor, Inc., priority 2000, dated 2007)
# Where two headings read alike, the source gives them in different places.
# Experiments:
# serotonin transporter = serotonin transporter (Homo sapiens, UniProt P31645); experiment: 5-HT uptake: displacement of serotonin ligands in vitro (methods of Gu et al.); assay type: binding
# [1] = target: norepinephrine transporter (Homo sapiens, UniProt P23975); experiment: NE uptake: displacement of norephinephrine ligands in vitro (methods of Galli et al.); assay type: binding
# Chain of norepinephrine transporter (P23975 whole entry): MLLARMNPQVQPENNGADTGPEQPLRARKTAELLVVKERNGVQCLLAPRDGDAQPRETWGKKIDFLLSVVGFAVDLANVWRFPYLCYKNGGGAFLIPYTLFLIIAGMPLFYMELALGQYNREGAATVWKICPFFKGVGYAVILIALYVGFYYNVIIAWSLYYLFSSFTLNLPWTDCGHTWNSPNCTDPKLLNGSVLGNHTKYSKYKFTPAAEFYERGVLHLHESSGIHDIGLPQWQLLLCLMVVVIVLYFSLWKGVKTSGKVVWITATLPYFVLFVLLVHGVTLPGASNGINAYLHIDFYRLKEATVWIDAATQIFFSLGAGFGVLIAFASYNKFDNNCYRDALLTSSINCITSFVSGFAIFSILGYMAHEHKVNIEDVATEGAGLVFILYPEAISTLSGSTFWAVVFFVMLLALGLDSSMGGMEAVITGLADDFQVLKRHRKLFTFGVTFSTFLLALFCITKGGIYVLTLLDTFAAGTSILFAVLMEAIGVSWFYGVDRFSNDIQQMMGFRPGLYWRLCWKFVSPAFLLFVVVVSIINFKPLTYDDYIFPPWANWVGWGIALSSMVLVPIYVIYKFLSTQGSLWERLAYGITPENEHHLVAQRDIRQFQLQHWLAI
# dopamine transporter = dopamine transporter (Homo sapiens, UniProt Q01959); experiment: DA uptake: displacement of dopamine ligands in vitro (methods of Gu et al.)
# Chain of dopamine transporter (Q01959 whole entry): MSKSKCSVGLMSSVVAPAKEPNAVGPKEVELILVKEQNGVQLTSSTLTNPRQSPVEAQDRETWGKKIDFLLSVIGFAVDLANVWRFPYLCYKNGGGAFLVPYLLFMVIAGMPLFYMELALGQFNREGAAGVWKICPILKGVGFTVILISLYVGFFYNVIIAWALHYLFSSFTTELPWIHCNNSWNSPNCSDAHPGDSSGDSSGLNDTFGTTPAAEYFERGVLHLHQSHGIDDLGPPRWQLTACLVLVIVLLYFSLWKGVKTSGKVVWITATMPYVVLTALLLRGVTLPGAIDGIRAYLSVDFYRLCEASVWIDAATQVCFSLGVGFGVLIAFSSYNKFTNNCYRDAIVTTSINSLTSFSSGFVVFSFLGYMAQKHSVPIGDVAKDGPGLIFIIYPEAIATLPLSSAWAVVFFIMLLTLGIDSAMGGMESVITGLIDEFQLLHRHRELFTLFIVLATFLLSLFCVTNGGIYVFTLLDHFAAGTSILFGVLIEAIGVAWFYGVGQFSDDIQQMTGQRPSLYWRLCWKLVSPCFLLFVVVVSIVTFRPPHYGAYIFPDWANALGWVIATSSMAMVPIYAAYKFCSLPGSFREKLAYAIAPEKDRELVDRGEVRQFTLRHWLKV
# [2] = displacement of serotonin ligands in vitro, read-out: 5-HT Uptake, Uptake Profile (IC50)
# [3] = NE Uptake, Uptake Profile (IC50, nM)
# [4] = DA Uptake, Uptake Profile (IC50, nM), displacement of dopamine ligands in vitro
# [5] = 5-HT Uptake, Uptake Profile (IC50, nM)
# [6] = read-out: NE Uptake, Uptake Profile (IC50)
# [7] = read-out: DA Uptake, Uptake Profile (IC50), displacement of dopamine ligands in vitro
# Chain of serotonin transporter (P31645 whole entry): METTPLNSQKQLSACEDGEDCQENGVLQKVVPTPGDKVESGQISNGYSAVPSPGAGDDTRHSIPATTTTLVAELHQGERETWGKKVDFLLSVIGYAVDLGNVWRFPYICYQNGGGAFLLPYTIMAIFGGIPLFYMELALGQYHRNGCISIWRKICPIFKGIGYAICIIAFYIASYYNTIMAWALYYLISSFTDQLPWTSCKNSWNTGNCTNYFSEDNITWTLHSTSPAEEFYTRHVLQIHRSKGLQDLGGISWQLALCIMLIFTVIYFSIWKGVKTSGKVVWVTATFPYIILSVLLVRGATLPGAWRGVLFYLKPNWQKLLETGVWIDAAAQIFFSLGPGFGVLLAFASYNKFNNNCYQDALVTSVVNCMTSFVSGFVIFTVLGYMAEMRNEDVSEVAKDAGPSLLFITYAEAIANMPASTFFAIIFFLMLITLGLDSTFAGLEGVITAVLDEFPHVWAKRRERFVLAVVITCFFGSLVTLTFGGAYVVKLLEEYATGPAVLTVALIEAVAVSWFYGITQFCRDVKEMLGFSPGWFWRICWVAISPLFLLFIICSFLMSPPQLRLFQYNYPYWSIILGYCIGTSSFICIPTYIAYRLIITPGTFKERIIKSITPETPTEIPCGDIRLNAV
Structure (SMILES),IC50 (serotonin transporter; [2]) [nM],"IC50 [1, 3] [nM]",IC50 (dopamine transporter; [4]) [nM],IC50 (serotonin transporter; [5]) [nM],"IC50 [1, 6] [nM]",IC50 (dopamine transporter) [nM],IC50 (dopamine transporter; [7]) [nM]
FC(F)(F)c1ccc(OCC2CN(CC3(c4ccc(Cl)cc4)CCC3)CCCO2)cc1 (centres unmarked) [compound 11],> 1000,> 1000,< 1000,–,–,–,–
"COc1ccccc1C1(C(O)CN2CCCC(COc3ccc4c(c3)OCO4)C2)CCC1 (centres unmarked) [compound 232, 2-[3-(Benzo[1,3]dioxol-5-yloxymethyl)-piperidin-1-yl]-1-[1-(2-methoxy-phenyl)-cyclobutyl]-ethanol]",< 1000,< 1000,< 1000,–,–,–,–
FC(F)(F)c1ccc(OC[C@@H]2CCCN(CC3(c4ccc(Cl)cc4)CCC3)C2)cc1 [compound 76],–,< 1000,< 1000,> 1000,–,–,–
"CC(O)(CN1CCCC(COc2ccccc2)C1)c1ccc(Cl)cc1 (centres unmarked) [compound 79, 2-(4-Chloro-phenyl)-1-(3-phenoxymethyl-piperidin-1-yl)-propan-2-ol]",< 100,< 1000,< 1000,–,–,–,–
CN(C)CC(Oc1ccc(C(F)(F)F)cc1)C1CCCN(CC2(c3ccc(Cl)cc3)CCC2)C1 (racemic) [compound 175],< 1000,> 1000,< 1000,–,–,–,–
FC(F)(F)c1ccc(SCC2CCCN(CC3(c4ccc(Cl)cc4)CCC3)C2)cc1 (centres unmarked) [compound 78],> 1000,< 1000,< 1000,–,–,–,–
"OC(CN1CCCC(CCc2ccc(C(F)(F)F)cc2)C1)c1ccc(Cl)cc1 (single isomer, unassigned) [compound 151, 1-(4-Chloro-phenyl)-2-{3-[2-(4-trifluoromethyl-phenyl)-ethyl]-piperidin-1-yl}-ethanol]",< 1000,< 1000,< 1000,–,–,–,–
CO[C@H](CN1CCC[C@H](COc2ccc(C(F)(F)F)cc2)C1)C1(c2ccc(Cl)cc2)CCC1 [compound 163],< 1000,> 1000,< 10,–,–,–,–
"FC(F)(F)c1ccc(OCC2CCCN(CCc3c[nH]c4ccccc34)C2)cc1 (centres unmarked) [compound 180, 3-{2-[3-(4-Trifluoromethyl-phenoxymethyl)-piperidin-1-yl]-ethyl}-1H-indole]",< 1000,< 1000,< 1000,–,–,–,–
"OC(C[C@H]1CCCN(CC2(c3ccc(Cl)cc3)CCC2)C1)c1ccccc1 (stereo in doubt) [compound 182, (S)-[2-{1-[1-(4-Chloro-phenyl)-cyclobutylmethyl]-piperidin-3-yl}-1-phenyl-ethanol]]",< 1000,–,< 100,–,> 1000,–,–
"O=C(CN1CCCC(COc2ccc(C(F)(F)F)cc2)C1)C1(c2ccc(Cl)cc2)CCC1 (centres unmarked) [compound 23, 1-[1-(4-Chlorophenyl)cyclobutyl]-2-[3-(4-trifluoromethyl-phenoxymethyl)piperidin-1-yl]ethanone]",> 1000,< 1000,< 100,–,–,–,–
"OC(CN1CCCC(COc2ccccc2)C1)c1ccc(Cl)cc1 (centres unmarked) [compound 33, 1-(4-Chloro-phenyl)-2-(3-phenoxymethyl-piperidin-1-yl)-ethanol]",< 1000,< 1000,< 100,–,–,–,–
"OC(CN1CCCC(CCc2ccc(C(F)(F)F)cc2)C1)C1(c2ccc(Cl)cc2)CCC1 (single isomer, unassigned) [compound 192, 1-[1-(4-Chloro-phenyl)-cyclobutyl]-2-{3-[2-(4-trifluoromethyl-phenyl)-ethyl]-piperidin-1-yl}-ethanol]",< 1000,< 1000,< 10,–,–,–,–
"OC(CN1CCCC(COc2ccc(C(F)(F)F)cc2)C1)c1ccc(Cl)cc1 (centres unmarked) [compound 136, 1-(4-Chloro-phenyl)-2-[3-(4-trifluoromethyl-phenoxymethyl)-piperidin-1-yl]-ethanol]",< 100,< 1000,< 1000,–,–,–,–
"FC(F)(F)c1ccc(OCCC2CCCN(CC3(c4ccc(Cl)cc4)CCC3)C2)cc1 (centres unmarked) [compound 39, 1-[1-(4-Chloro-phenyl)-cyclobutylmethyl]-3-[2-(4-trifluoromethyl-phenoxy)-ethyl]-piperidine]",> 1000,< 100,< 10,–,–,–,–
"COC(CC1CCCN(CC2(c3ccc(Cl)cc3)CCC2)C1)c1ccccc1 (stereo in doubt) [compound 184, (S)-[1-[1-(4-Chloro-phenyl)-cyclobutylmethyl]-3-(2-methoxy-2-phenyl-ethyl)-piperidine]]",< 1000,< 1000,< 1000,–,–,–,–
"FC(F)(F)c1ccc(OCC2CCCN(CC3COc4ccccc4O3)C2)cc1 (single isomer, unassigned) [compound 178, 1-(2,3-Dihydro-benzo[1,4]dioxin-2-ylmethyl)-3-(4-trifluoromethyl-phenoxymethyl)-piperidine]",< 1000,< 1000,< 1000,–,–,–,–
"FC(F)(F)c1ccc(CCC2CCCN(CC3(c4ccc(Cl)cc4)CCC3)C2)cc1 (centres unmarked) [compound 95, 1-[1-(4-Chloro-phenyl)-cyclobutylmethyl]-3-[2-(4-trifluoromethyl-phenyl)-ethyl]-piperidine]",< 1000,–,< 1000,–,> 1000,–,–
"OC(CN1CCCC(CCc2ccc(C(F)(F)F)cc2)C1)C1(c2ccc(Cl)cc2)CCC1 (single isomer, unassigned) [compound 194, 1-[1-(4-Chloro-phenyl)-cyclobutyl]-2-{3-[2-(4-trifluoromethyl-phenyl)-ethyl]-piperidin-1-yl}-ethanol]",< 1000,< 100,< 10,–,–,–,–

Structure (SMILES),IC50 (serotonin transporter; [2]) [nM],"IC50 [1, 3] [nM]",IC50 (dopamine transporter; [4]) [nM],IC50 (serotonin transporter; [5]) [nM],"IC50 [1, 6] [nM]",IC50 (dopamine transporter) [nM],IC50 (dopamine transporter; [7]) [nM]
"O=C(CN1CCCC(COc2ccccc2)C1)c1ccc(Cl)cc1 (centres unmarked) [compound 32, 1-(4-Chloro-phenyl)-2-(3-phenoxymethyl-piperidin-1-yl)-ethanone]",–,< 1000,> 1000,> 1000,–,–,–
"CC(O)(C[C@H]1CCCN(CC2(c3ccc(Cl)cc3)CCC2)C1)c1ccccc1 (stereo in doubt) [compound 185, (S)-[1-{1-[1-(4-Chloro-phenyl)-cyclobutylmethyl]-piperidin-3-yl}-2-phenyl-propan-2-ol]]",> 1000,–,< 1000,–,> 1000,–,–
"FC(F)(F)c1ccc(OCC2CCCN(CCc3ccc(Cl)cc3)C2)cc1 (centres unmarked) [compound 8, 1-[2-(4-Chloro-phenyl)-ethyl]-3-(4-trifluoromethyl-phenoxymethyl)-piperidine]",–,–,> 1000,–,> 1000,–,–
"CC(O)(CN1CCC[C@@H](CCc2ccccc2)C1)c1ccc(Cl)cc1 (stereo partly drawn) [compound 197, 2-(4-Chloro-phenyl)-1-(3 (R)-phenethyl-piperidin-1-yl)-propan-2-ol]",< 10,< 1000,< 1000,–,–,–,–
"OC(CN1CCCC(COc2ccccc2)C1)C1(c2ccc(Cl)cc2)CCC1 (centres unmarked) [compound 21, 1-[1-(4-Chloro-phenyl)cyclobutyl]-2-(3-phenoxymethylpiperidin-1-yl)ethanol]",< 1000,< 100,< 100,–,–,–,–
"OC(CN1CCCC(CCc2ccccc2)C1)c1ccc(Cl)cc1 (single isomer, unassigned) [compound 142, 1-(4-Chloro-phenyl)-2-(3-phenethyl-piperidin-1-yl)-ethanol]",< 100,< 1000,< 1000,–,–,–,–
"FC(F)(F)c1ccc(CCC2CCCN(CC3(c4ccccc4)CCC3)C2)cc1 (centres unmarked) [compound 93, 1-(1-phenyl-cyclobutylmethyl]-3-[2-(4-trifluoromethyl-phenyl)-ethyl]-piperidine]",< 1000,–,–,–,> 1000,> 1000,–
"CC(C)(CN1CCCC(COc2ccc(C(F)(F)F)cc2)C1)c1ccc(Cl)cc1 (centres unmarked) [compound 42, 1-[2-(chloro-phenyl)-2-methyl-propyl]-3-(4-trifluoromethyl-phenoxymethyl)-piperidine]",> 1000,–,–,–,< 1000,–,< 100
FC(F)(F)c1ccc(OC2CCCN(CC3(c4ccc(Cl)cc4)CCC3)C2)cc1 (centres unmarked) [compound 158],> 1000,> 1000,< 1000,–,–,–,–
OC(CN1CCCC(COc2ccc(C(F)(F)F)cc2)C1)C1(c2ccc(C(F)(F)F)cc2)CCC1 (centres unmarked) [compound 166],> 1000,< 100,< 10,–,–,–,–
CN(C)CC(Oc1ccc(C(F)(F)F)cc1)C1CCCN(CC2(c3ccc(Cl)cc3)CCC2)C1 (racemic) [compound 174],< 100,< 1000,< 100,–,–,–,–
"NCC1CCCN(CC2(c3ccc(Cl)cc3)CCC2)C1 (centres unmarked) [compound 230, C-{1-[1-(4-Chloro-phenyl)-cyclobutylmethyl]-piperidin-3-yl}-methylamine]",> 1000,–,< 100,–,> 1000,–,–
"O=C(CN1CCCC(CCc2ccc(C(F)(F)F)cc2)C1)c1ccc(Cl)cc1 (centres unmarked) [compound 150, 1-(4-Chloro-phenyl)-2-{3-[2-(4-trifluoromethyl-phenyl)-ethyl]-piperidin-1-yl}-ethanone]",> 1000,–,–,–,> 1000,> 1000,–
"OC(CN1CCCC(CCc2ccccc2)C1)c1ccc(Cl)cc1 (single isomer, unassigned) [compound 141, 1-(4-Chloro-phenyl)-2-(3-phenethyl-piperidin-1-yl)-ethanol]",< 1000,< 1000,< 1000,–,–,–,–
"FC(F)(F)c1ccc(OCC2CCCCN(CC3(c4ccc(Cl)cc4)CCC3)C2)cc1 (centres unmarked) [compound 168, 1-[1-(4-Chloro-phenyl)-cyclobutylmethyl]-3-(4-trifluoromethyl-phenoxymethyl)-azepane]",> 1000,< 1000,< 100,–,–,–,–
"Clc1ccc(C2(CN3CCCC(COc4ccccc4)C3)CCC2)cc1 (single isomer, unassigned) [compound 5]",–,–,< 1000,–,–,–,–
Clc1ccc(C2(CN3CCC[C@@H](COc4ccccc4)C3)CCC2)cc1 [compound 72],–,–,< 1000,–,–,–,–
"Clc1ccc(C2(CN3CCCC(COc4ccccc4)C3)CCC2)cc1 (single isomer, unassigned) [compound 6]",–,–,–,–,–,–,< 1000
